Results from patent US20140303092A1 (CHIMERIX, INC., priority 2011, published 2014).

Test: Study HDP-CDV-201: safety and tolerability (adverse events, laboratory abnormalities, discontinuations)
Type: in vivo, human (adult allogeneic HSCT recipients)
Description: Clinical Studies of HDP-CDV were performed and described in detail in the following Examples. For example, HDP-CDV-201 is a placebo-controlled, dose-escalating trial in HSCT CMV (R+) recipients, evaluating the ability of HDP-CDV to prevent or control CMV infection was carried out. Five cohorts were established in which participants or subjects received either placebo or the HDP-CDV orally, in doses ranging from 40 mg weekly (QW) to 200 mg twice weekly (BIW). Subjects who were post-HSCT were enrolled at the time of engraftment and randomized to HDP-CDV or placebo (3 to 1 ratio) and received blinded therapy until approximately 100 day post-transplantation. HDP-CDV doses were 40 mg QW, 100 mg QW, 200 mg QW, 200 mg BIW and 100 mg BIW. Escalation to the next dose was decided by the data monitoring committee after review of the safety data from the previous Cohort. Subjects who developed CMV disease or CMV infection requiring pre-emptive therapy with local standard of care were discontinued from blinded therapy and followed for 4 weeks. Subjects who completed treatment with blinded therapy were followed for 8 weeks post-therapy.
Data from Study HDP-CDV-201 also provided characterization of the safety and tolerability profile of HDP-CDV when administered for the prevention or control of CMV infection in high risk (R^+) post-HSCT adult subjects.
The Safety population (SAFETY) included all randomized subjects who took at least one dose of study treatment. This population was used to summarize safety outcomes based on the treatment actually received, in cases where a subject was treated contrary to the randomization schedule.
The safety and tolerability profile of HDP-CDV, including subject demographics and Baseline characteristics; the AE profile; and laboratory abnormalities of interest were analyzed in the cohorts followed in this investigation.
Subjects completing the treatment period received a full course of study medication; those completing the entire study attended visits through 8 weeks of follow up. Subjects who discontinued treatment may have done so for protocol specified reasons (e.g. development of clinically significant CMV infection requiring preemptive treatment with excluded anti-CMV medications) or for other reasons (e.g., withdrawal, adverse events, loss to follow-up). The disposition of subjects in Study HDP-CDV-201 during the double-blind, placebo-controlled treatment period (through Week 11) is listed by dosing Cohort in TABLE 23.
Adverse events were examined by severity to ensure that all safety signals were identified in this study population. Because of the frequency of events in HSCT recipients, particular attention was given to evaluation of Grade 3 […], 4 (severe), and 5 (fatal) adverse events.
Only those preferred terms for which at least one Grade 3 or higher event was experienced in any treatment group are listed. Cytomegalovirus-related AEs are excluded from this analysis.
HDP-CDV is a lipid conjugate of CDV. Because CDV is known to have adverse effects on renal function and bone marrow, decreased GFR and persistent neutropenia were identified as AEs of special interest. Key renal and hematological (TABLE 30) laboratory parameters were measured and listed below by Study HDP-CDV-201 treatment groups. TABLE 30 includes abnormal levels of serum creatinine, neutrophils, platelets, WBCs, and hemoglobin and includes data at Screening and during the treatment period.
A common metric for unit based dosing of medications is by weight (mg/kg). When the distribution of weights was examined for all subjects participating in the study, the median was 78 kg and the lower 25th percentile weight was approximately 65 kg, which translates to a cut-off of ˜3 mg/kg for a 200 mg total weekly dose. Based upon this approach, a cut-off of 3 mg/kg was used to assess the frequency of diarrhea and associated GI AEs reported for the subjects in Cohorts 3 or 4a (TABLE 40).

CCCCCCCCCCCCCCCCOCCCOP(=O)(O)COC(CO)Cn1ccc(N)nc1=O (stereo not drawn) [HDP-CDV]
TEAE GGT Increased, Frequency (100 mg QW): 1 (3.7%) | TEAE GGT Increased, Grade 2 (100 mg QW): 1 (3.7%) | TEAE GGT Increased, Grade 3 (100 mg QW): 0 | TEAE GGT Increased, Grade 4 (100 mg QW): 0 | TEAE GGT Increased, Grade 5 (100 mg QW): 0 | TEAE Generalized oedema, Frequency (100 mg QW): 0 | TEAE Generalized oedema, Grade 2 (100 mg QW): 0 | TEAE Generalized oedema, Grade 3 (100 mg QW): 0 | TEAE Generalized oedema, Grade 4 (100 mg QW): 0 | TEAE Generalized oedema, Grade 5 (100 mg QW): 0 | TEAE Hyperbilirubinaemia, Frequency (100 mg QW): 0 | TEAE Hyperbilirubinaemia, Grade 2 (100 mg QW): 0 | TEAE Hyperbilirubinaemia, Grade 3 (100 mg QW): 0 | TEAE Hyperbilirubinaemia, Grade 4 (100 mg QW): 0 | TEAE Hyperbilirubinaemia, Grade 5 (100 mg QW): 0 | TEAE Hyperglycaemia, Frequency (100 mg QW): 1 (3.7%) | TEAE Hyperglycaemia, Grade 2 (100 mg QW): 0 | TEAE Hyperglycaemia, Grade 3 (100 mg QW): 1 (3.7%) | TEAE Hyperglycaemia, Grade 4 (100 mg QW): 0 | TEAE Hyperglycaemia, Grade 5 (100 mg QW): 0 | TEAE Hyperkalemia, Frequency (100 mg QW): 1 (3.7%) | TEAE Hyperkalemia, Grade 2 (100 mg QW): 0 | TEAE Hyperkalemia, Grade 3 (100 mg QW): 1 (3.7%) | TEAE Hyperkalemia, Grade 4 (100 mg QW): 0 | TEAE Hyperkalemia, Grade 5 (100 mg QW): 0 | TEAE Hypocalcaemia, Frequency (100 mg QW): 0 | TEAE Hypocalcaemia, Grade 2 (100 mg QW): 0 | TEAE Hypocalcaemia, Grade 3 (100 mg QW): 0 | TEAE Hypocalcaemia, Grade 4 (100 mg QW): 0 | TEAE Hypocalcaemia, Grade 5 (100 mg QW): 0 | TEAE Hypokalaemia, Frequency (100 mg QW): 2 (7.4%) | TEAE Hypokalaemia, Grade 2 (100 mg QW): 0 | TEAE Hypokalaemia, Grade 3 (100 mg QW): 0 | TEAE Hypokalaemia, Grade 4 (100 mg QW): 0 | TEAE Hypokalaemia, Grade 5 (100 mg QW): 0 | TEAE Hyponatraemia, Frequency (100 mg QW): 1 (3.7%) | TEAE Hyponatraemia, Grade 2 (100 mg QW): 0 | TEAE Hyponatraemia, Grade 3 (100 mg QW): 0 | TEAE Hyponatraemia, Grade 4 (100 mg QW): 0 | TEAE Hyponatraemia, Grade 5 (100 mg QW): 0 | TEAE LFT Abnormal, Frequency (100 mg QW): 1 (3.7%) | TEAE LFT Abnormal, Grade 2 (100 mg QW): 0 | TEAE LFT Abnormal, Grade 3 (100 mg QW): 0 | TEAE LFT Abnormal, Grade 4 (100 mg QW): 0 | TEAE LFT Abnormal, Grade 5 (100 mg QW): 0 | TEAE Leukocytosis, Frequency (100 mg QW): 0 | TEAE Leukocytosis, Grade 2 (100 mg QW): 0 | TEAE Leukocytosis, Grade 3 (100 mg QW): 0 | TEAE Leukocytosis, Grade 4 (100 mg QW): 0 | TEAE Leukocytosis, Grade 5 (100 mg QW): 0 | TEAE Nausea, Frequency (100 mg QW): 5 (18.5%) | TEAE Nausea, Grade 2 (100 mg QW): 1 (3.7%) | TEAE Nausea, Grade 3 (100 mg QW): 0 | TEAE Nausea, Grade 4 (100 mg QW): 0 | TEAE Nausea, Grade 5 (100 mg QW): 0 | TEAE Neutropenia, Frequency (100 mg QW): 4 (14.8%) | TEAE Neutropenia, Grade 2 (100 mg QW): 1 (3.7%) | TEAE Neutropenia, Grade 3 (100 mg QW): 2 (7.4%) | TEAE Neutropenia, Grade 4 (100 mg QW): 1 (3.7%) | TEAE Neutropenia, Grade 5 (100 mg QW): 0 | TEAE Pneumonia, Frequency (100 mg QW): 2 (7.4%) | TEAE Pneumonia, Grade 2 (100 mg QW): 0 | TEAE Pneumonia, Grade 3 (100 mg QW): 1 (3.7%) | TEAE Pneumonia, Grade 4 (100 mg QW): 1 (3.7%) | TEAE Pneumonia, Grade 5 (100 mg QW): 0 | TEAE Pyrexia, Frequency (100 mg QW): 1 (3.7%) | TEAE Pyrexia, Grade 2 (100 mg QW): 0 | TEAE Pyrexia, Grade 3 (100 mg QW): 0 | TEAE Pyrexia, Grade 4 (100 mg QW): 0 | TEAE Pyrexia, Grade 5 (100 mg QW): 0 | TEAE Renal Failure, Frequency (100 mg QW): 2 (7.4%) | TEAE Renal Failure, Grade 2 (100 mg QW): 2 (7.4%) | TEAE Renal Failure, Grade 3 (100 mg QW): 0 | TEAE Renal Failure, Grade 4 (100 mg QW): 0 | TEAE Renal Failure, Grade 5 (100 mg QW): 0 | TEAE Staphylococcal Bacteremia, Frequency (100 mg QW): 1 (3.7%) | TEAE Staphylococcal Bacteremia, Grade 2 (100 mg QW): 0 | TEAE Staphylococcal Bacteremia, Grade 3 (100 mg QW): 1 (3.7%) | TEAE Staphylococcal Bacteremia, Grade 4 (100 mg QW): 0 | TEAE Staphylococcal Bacteremia, Grade 5 (100 mg QW): 0 | TEAE Thrombocytopenia, Frequency (100 mg QW): 3 (11.1%) | TEAE Thrombocytopenia, Grade 2 (100 mg QW): 1 (3.7%) | TEAE Thrombocytopenia, Grade 3 (100 mg QW): 1 (3.7%) | TEAE Thrombocytopenia, Grade 4 (100 mg QW): 1 (3.7%) | TEAE Thrombocytopenia, Grade 5 (100 mg QW): 0 | TEAE Vomiting, Frequency (100 mg QW): 6 (22.2%) | TEAE Vomiting, Grade 2 (100 mg QW): 2 (7.4%) | TEAE Vomiting, Grade 3 (100 mg QW): 0 | TEAE Vomiting, Grade 4 (100 mg QW): 0 | TEAE Vomiting, Grade 5 (100 mg QW): 0 | Subjects Reporting Diarrhea as an AE (100 mg QW, n = 27): 8 (29.6%) | Discontinuation: Death (100 mg QW, active treatment period): 0 Subject n (%) | Discontinuation: Adverse event (100 mg QW, active treatment period through Week 11): 3 (11.1%) Subject n (%) | subjects who discontinued study medications (100 mg weekly): 33% | TEAE ALT increased, Frequency (200 mg BIW): 10 (33.3%) | TEAE ALT increased, Grade 2 (200 mg BIW): 4 (13.3%) | TEAE ALT increased, Grade 3 (200 mg BIW): 2 (6.7%) | TEAE ALT increased, Grade 4 (200 mg BIW): 0 | TEAE ALT increased, Grade 5 (200 mg BIW): 0 | TEAE AML, Recurrent, Frequency (200 mg BIW): 0 | TEAE AML, Recurrent, Grade 2 (200 mg BIW): 0 | TEAE AML, Recurrent, Grade 3 (200 mg BIW): 0 | TEAE AML, Recurrent, Grade 4 (200 mg BIW): 0 | TEAE AML, Recurrent, Grade 5 (200 mg BIW): 0 | TEAE AST increased, Frequency (200 mg BIW): 7 (23.3%) | TEAE AST increased, Grade 2 (200 mg BIW): 3 (10.0%) | TEAE AST increased, Grade 3 (200 mg BIW): 0 | TEAE AST increased, Grade 4 (200 mg BIW): 0 | TEAE AST increased, Grade 5 (200 mg BIW): 0 | TEAE Abdominal pain, Frequency (200 mg BIW): 11 (36.7%) | TEAE Abdominal pain, Grade 2 (200 mg BIW): 8 (26.7%)
